Reference: patent publication US10421768B2, “Method of biotransformation of benzopyrone compounds into the corresponding phosphate-conjugated derivatives” (National Taiwan University, priority 2016, dated 2019)
Values after ≈ are worked out from the molar mass of the structure shown. Read-outs that look alike come from different tables or passages of the source.

Legend:
[1] = Solubility of isoflavone phosphate conjugates and aglycones in DI water (25° C.); assay type: physicochemical; conditions: for solubility relative to genistein and daidzein: 25° C. water, phosphate vs aglycone; for Solubility enhancement ratio: phosphate conjugate vs aglycone
From the text: This can increase the application of isoflavones in pharmaceuticals, food, and cosmetics.

[2] = cited from earlier work; for solubility: in water, stated in text without method; for solubility in water (in words): qualitative statement (b7: according to Merck Index); for water solubility relative to aglyconic form of isoflavones: derivatives reported in several studies
[3] = DI water, 25° C., read-out: Water solubility

Compound | solubility [2] | solubility in water (in words) [2] | water solubility relative to aglyconic form of isoflavones [2] | further results
O=c1c(-c2ccc(O)cc2)coc2cc(O)cc(O)c12 [Genistein, genistein] | 0.8 µg/mL (≈ 2.96 µM) | practically insoluble in water | – | solubility [1, 3]: 0.82 µg/mL (≈ 3.03 µM)
O=c1c(-c2ccc(O)cc2)coc2c(O)c(O)cc(O)c12 [8-hydroxy genistein] | – | – | higher water solubility | –
O=c1c(O)c(-c2ccc(O)cc2)oc2cc(O)cc(O)c12 [Kaempferol, kaempferol] | – | barely insoluble in water | – | –
COc1ccc([C@@H]2CC(=O)c3c(O)cc(O)cc3O2)cc1O [hesperetin] | 1.4 µg/mL (≈ 4.63 µM) | – | – | –
O=c1c(-c2ccc(O)cc2)coc2cc(OS(=O)(=O)O)ccc12 [daidzein-7-O-sulfate] | – | – | higher water solubility | –
O=c1c(O)c(-c2ccc(O)c(O)c2)oc2cc(O)cc(O)c12 [quercetin] | – | barely insoluble in water | – | –
O=c1c(-c2ccc(O)cc2)coc2cc(OP(=O)(O)O)ccc12 [Daidzein-7-O-phosphate, daidzein-7-O-phosphate] | – | – | – | solubility relative to genistein and daidzein [1]: ten million times higher; solubility [1, 3]: 179000 µg/mL (≈ 536000 µM); Solubility enhancement ratio ([1]; DI water, 25° C.): 1.3 × 10^5
O=c1c(-c2ccc(O)cc2)coc2cc(O)c(O)c(O)c12 [6-hydroxy genistein] | – | – | higher water solubility | –
O=c1c(-c2ccc(O)cc2)coc2cc(O)ccc12 [Daidzein, daidzein] | 8.2 µg/mL (≈ 32.3 µM) | practically insoluble in water | – | solubility ([1]; 25 °C, water): 1.36 µg/mL (≈ 5.35 µM)
O=C1C[C@@H](c2ccc(O)cc2)Oc2cc(O)cc(O)c21 [Naringenin, naringenin] | 45 µg/mL (≈ 165 µM) | – | – | –
O=c1c(-c2ccc(O)cc2O)coc2cc(O)cc(O)c12 [2′-hydroxy genistein] | – | – | higher water solubility | –
O=c1c(-c2ccc(O)cc2)coc2cc(OP(=O)(O)O)cc(O)c12 [Genistein-7-O-phosphate, genistein-7-O-phosphate] | – | – | – | solubility relative to genistein and daidzein [1]: ten million times higher; solubility [1, 3]: 100000 µg/mL (≈ 286000 µM); Solubility enhancement ratio ([1]; DI water, 25° C.): 1.2 × 10^5
